The source made the active and inactive calls. No cut-off for these calls is given here.
Columns and labels:
[1] = Screening was performed to determine its plasma triglyceride lowering activity on administration of 10 mg/kg/day dose for 6 days on inbreed colony of Swiss Albino Mice; format: functional, Mus musculus
Mus musculus = experiment: Screening was performed to determine its plasma triglyceride lowering activity on administration of 10 mg/kg/day on inbreed colony of Swiss Albino Mice; No significant reduction; format: functional, organism-based
[2] = Screening was performed to determine its plasma triglyceride lowering activity on administration of 30 mg/kg/day dose for 6 days on inbreed colony of Swiss Albino Mice; format: functional, Mus musculus

Compound	Lowering activity [1] [%]	Lowering activity (Mus musculus)	Lowering activity [2] [%]
CCc1nc2ccccc2c(=O)n1CC(=O)N[C@H]1C[C@@H](C(=O)O)N(C(=O)OC(C)(C)C)C1	30	–	–
CCCc1nn(C)c2c(=O)n(CC(=O)N[C@H]3C[C@@H](C(=O)OCC)N(C(=O)OC(C)(C)C)C3)c(CC)nc12	40	–	–
CC(C)OC(=O)C(C)(C)Oc1ccc(C(=O)c2ccc(Cl)cc2)cc1 [FENOFIBRATE]	–	inactive	36
